Values of other authors as cited in patent publication US9668844B2, “Device for fixation at a dental site” (Colldent Y.A. Ltd., priority 2013, dated 2017).

How the values were obtained:
bacteria = details: see Paine, M. L. et al JADA 129 (1998)

Question: Which “acute lethal dose of fluoride (F)” value (acute) does the source give for F [fluoride] here?
Answer: Its value is 33 mg F/Kg body weight.

Question: And the chronic toxicity (chronic)?
Answer: Its chronic toxicity is 0.1 mg F/Kg.

Question: With [F][Sn][F] [stannous fluoride] as the compound, how does the antibacterial activity (bacteria) read?
Answer: Its antibacterial activity is “has shown antibacterial activity”.
